Reference: the NIST ThermoML archive (doi:10.1021/je200721d)

Test: xn = mol fraction of the nth substance listed
Details: Liquid, Vibrating tube method

CCCCCCCC [octane] + CCCCCC
Details | mass density [kg/m3]
352.91 K, 7000 kPa, x2 = 0.1654 | 656.4
352.91 K, 7000 kPa, x2 = 0.9308 | 619.06
352.91 K, 8000 kPa, x2 = 0.1654 | 657.6
352.91 K, 8000 kPa, x2 = 0.9308 | 620.53
352.91 K, 9000 kPa, x2 = 0.1654 | 658.8
352.91 K, 9000 kPa, x2 = 0.9308 | 621.96
352.91 K, 10000 kPa, x2 = 0.1654 | 659.99
352.91 K, 10000 kPa, x2 = 0.9308 | 623.39
352.91 K, 11000 kPa, x2 = 0.1654 | 661.15
352.91 K, 11000 kPa, x2 = 0.9308 | 624.78
352.91 K, 12000 kPa, x2 = 0.1654 | 662.28
352.91 K, 12000 kPa, x2 = 0.9308 | 626.15
352.91 K, 13000 kPa, x2 = 0.1654 | 663.41
352.91 K, 13000 kPa, x2 = 0.9308 | 627.49
352.91 K, 14000 kPa, x2 = 0.1654 | 664.53
352.91 K, 14000 kPa, x2 = 0.9308 | 628.8
352.91 K, 15000 kPa, x2 = 0.1654 | 665.63
352.91 K, 15000 kPa, x2 = 0.9308 | 630.08
352.91 K, 16000 kPa, x2 = 0.1654 | 666.68
352.91 K, 16000 kPa, x2 = 0.9308 | 631.35
352.91 K, 17000 kPa, x2 = 0.1654 | 667.73
352.91 K, 17000 kPa, x2 = 0.9308 | 632.57
352.91 K, 18000 kPa, x2 = 0.1654 | 668.76
352.91 K, 18000 kPa, x2 = 0.9308 | 633.78
352.91 K, 19000 kPa, x2 = 0.1654 | 669.76
352.91 K, 19000 kPa, x2 = 0.9308 | 634.96
352.91 K, 20000 kPa, x2 = 0.1654 | 670.78
352.91 K, 20000 kPa, x2 = 0.9308 | 636.11
352.91 K, 21000 kPa, x2 = 0.1654 | 671.71
352.91 K, 21000 kPa, x2 = 0.9308 | 637.22
352.91 K, 22000 kPa, x2 = 0.1654 | 672.65
352.91 K, 22000 kPa, x2 = 0.9308 | 638.32
352.91 K, 23000 kPa, x2 = 0.1654 | 673.59
352.91 K, 23000 kPa, x2 = 0.9308 | 639.39
352.91 K, 24000 kPa, x2 = 0.1654 | 674.5
352.91 K, 24000 kPa, x2 = 0.9308 | 640.43
352.91 K, 25000 kPa, x2 = 0.1654 | 675.39
352.91 K, 25000 kPa, x2 = 0.9308 | 641.44
352.92 K, 1000 kPa, x2 = 0.7995 | 618.46
352.92 K, 2000 kPa, x2 = 0.7995 | 619.98
352.92 K, 3000 kPa, x2 = 0.7995 | 621.51
352.92 K, 4000 kPa, x2 = 0.7995 | 623
352.92 K, 5000 kPa, x2 = 0.7995 | 624.48
352.92 K, 6000 kPa, x2 = 0.7995 | 625.93
352.92 K, 7000 kPa, x2 = 0.7995 | 627.37
352.92 K, 8000 kPa, x2 = 0.7995 | 628.79
352.92 K, 9000 kPa, x2 = 0.7995 | 630.18
352.92 K, 10000 kPa, x2 = 0.7995 | 631.54
352.92 K, 11000 kPa, x2 = 0.7995 | 632.86
352.92 K, 12000 kPa, x2 = 0.7995 | 634.17
352.92 K, 13000 kPa, x2 = 0.7995 | 635.46
352.92 K, 14000 kPa, x2 = 0.7995 | 636.72
352.92 K, 15000 kPa, x2 = 0.7995 | 637.96
352.92 K, 16000 kPa, x2 = 0.7995 | 639.16
352.92 K, 17000 kPa, x2 = 0.7995 | 640.35
352.92 K, 18000 kPa, x2 = 0.7995 | 641.51
352.92 K, 19000 kPa, x2 = 0.7995 | 642.64
352.92 K, 20000 kPa, x2 = 0.7995 | 643.75
352.92 K, 21000 kPa, x2 = 0.7995 | 644.82
352.92 K, 22000 kPa, x2 = 0.7995 | 645.88
352.92 K, 23000 kPa, x2 = 0.7995 | 646.92
352.92 K, 24000 kPa, x2 = 0.7995 | 647.94
352.92 K, 25000 kPa, x2 = 0.7995 | 648.91
362.76 K, 1000 kPa, x2 = 0.5749 | 622.07
362.76 K, 2000 kPa, x2 = 0.5749 | 623.63
362.76 K, 3000 kPa, x2 = 0.5749 | 625.2
362.76 K, 4000 kPa, x2 = 0.5749 | 626.68
362.76 K, 5000 kPa, x2 = 0.5749 | 628.17
362.76 K, 6000 kPa, x2 = 0.5749 | 629.67
362.76 K, 7000 kPa, x2 = 0.5749 | 631.09
362.76 K, 8000 kPa, x2 = 0.5749 | 632.53
362.76 K, 9000 kPa, x2 = 0.5749 | 633.92
362.76 K, 10000 kPa, x2 = 0.5749 | 635.27
362.76 K, 11000 kPa, x2 = 0.5749 | 636.64
362.76 K, 12000 kPa, x2 = 0.5749 | 637.96
362.76 K, 13000 kPa, x2 = 0.5749 | 639.28
362.76 K, 14000 kPa, x2 = 0.5749 | 640.55
362.76 K, 15000 kPa, x2 = 0.5749 | 641.82
362.76 K, 16000 kPa, x2 = 0.5749 | 643.03
362.76 K, 17000 kPa, x2 = 0.5749 | 644.23
362.76 K, 18000 kPa, x2 = 0.5749 | 645.42
362.76 K, 19000 kPa, x2 = 0.5749 | 646.56
362.76 K, 20000 kPa, x2 = 0.5749 | 647.68
362.76 K, 21000 kPa, x2 = 0.5749 | 648.78
362.76 K, 22000 kPa, x2 = 0.5749 | 649.86
362.76 K, 23000 kPa, x2 = 0.5749 | 650.91
362.76 K, 24000 kPa, x2 = 0.5749 | 651.95
362.76 K, 25000 kPa, x2 = 0.5749 | 652.96
362.88 K, 1000 kPa, x2 = 0.1654 | 640.2
362.88 K, 1000 kPa, x2 = 0.2199 | 637.97
362.88 K, 2000 kPa, x2 = 0.1654 | 641.61
362.88 K, 2000 kPa, x2 = 0.2199 | 639.42
362.88 K, 3000 kPa, x2 = 0.1654 | 642.98
362.88 K, 3000 kPa, x2 = 0.2199 | 640.79
